Patent US20130023553A1, “PEGYLATED OPIOIDS WITH LOW POTENTIAL FOR ABUSE AND SIDE EFFECTS” (Nektar Therapeutics, priority 2010, published 2013)

Columns and labels:
Sprague-Dawley male rats = test: Motor coordination (sedation) on the rotarod treadmill; format: in vivo; conditions: for sedation compared to oxycodone: equianalgesic dose
Protocol: The following studies were conducted to evaluate the effect of orally administered PEG-6-O-hydroxycodone on motor coordination (i.e., sedation) in rats using the rat rotarod Treadmill. Motor coordination was evaluated at 0.5 h and 1 h post-dose.
The rats weighed between 240 to 280 grams on the day of study. Rats were not fasted prior to dosing.
Animals were trained to run on the treadmill for 2 consecutive days prior to the day of study. Animals were trained at a constant speed of 10 RPM and were given as many trials as necessary until they were able to stay on the rotarod for 300 seconds. Rats that were able to stay on the rod for 300 seconds were considered trained. On the day of study, animals were placed on the rotarod treadmill at 0, 30, and 60 minutes post dose. The treadmill was set at a constant speed of 4 RPM for 15 seconds, at this point the timer was started (T=0). After this 15 second period, the rotarod was set to accelerate from 4-40 RPM over a five minute period (using the built in program of the rotarod). The time (in seconds) that each animal stopped running and tripped the plate was recorded as the animal's run time. Animals that ran for 300 seconds were taken of the treadmill and 300 seconds was recorded as the run time.
The objective of this study was to evaluate the effect of 10, 30, 100, and 300 mg/kg of PEG-6-O-hydroxycodone on motor coordination in rats using the rotarod treadmill. All doses were administered orally and evaluated at 0.5 h and 1 h post-dose.

[1] = Pharmacokinetics following intravenous (IV) dosing; format: in vivo, Sprague-Dawley rats; conditions: male, Sprague-Dawley, rat, plasma, hydroxycodone series, 1 mg/kg IV, Mean ± SD
Source text: There were 3 rats/group. All animals were food fasted overnight. […] The predose sample was collected from the JVC.
Following the last collection point, the animals were euthanized.

Male CD-1 mice = test: Assessment of CNS side effects in mice (Straub tail, muscle rigidity, pinna reflex)
Source text: The objective of this study was to provide an approximation of the side effect profile of various oligomeric conjugates for comparison to the parent compounds by measuring various gross behavioral and physiological signs following administration of compound.
Additional evaluations included muscle rigidity and pinna reflex.
Male CD-1 mice from Charles River Laboratories, Raleigh, N.C., weighing from 16-18 grams were maintained on a regular light/dark cycle (lights on 0600-1800) with ad libitum food and water for 1 week before commencement of testing. N=2 per treatment condition, i.e., separate mice for each dose of each test article, injection was performed via a 25-gauge ⅝-inch needle on a 1-mL tuberculin syringe for the s.c. route and a 22-gauge stainless steel mouse feeding tube for the p.o. route (Becton, Dickinson & Co., Franklin Lakes, N.J.). Each treatment condition was divided about evenly between two observers. […] Test article was administered (s.c. or p.o., and the mouse was placed immediately in the observation chamber). One-half, 1, 2, and 3 hours later, the animal was observed undisturbed for gross signs such as locomotor ataxia, tremor, hyperactivity, hypoactivity, convulsions, hindlimb splay, and Straub tail, and then removed and assessed for muscle tone (normal, rigid, flaccid), pinna reflex (presence or absence), righting reflex (intact or lost), and placing (whether or not the forepaws are extended when the mouse is placed near a surface).
Each of the tables show the number of animals responding at each dose, where N=2. […] A bolded value indicates the lowest dose at which a response was detected.

## COCCOCCOCCOCCOCCOCCOC1CCC2(O)C3Cc4ccc(OC)c5c4C2(CCN3C)C1O5 (stereo not drawn) [α-6-mPEG6-O-hydroxycodone, α-6-mPEG6-O-oxycodone]
Sprague-Dawley male rats; 300 mg/kg oral, 0.5 h and 1 h post-dose
  motor impairment, overall: slight motor impairment
Sprague-Dawley male rats; 10, 30, 100 mg/kg oral
  rotarod performance, overall: failed to impair rotarod performance
Sprague-Dawley male rats; listed as PEG-6-O-hydroxycodone
  sedation compared to oxycodone: produces less sedation than the parent opioid
Sprague-Dawley male rats; listed as mPEG6-O-hydroxycodone
  sedation compared to oxycodone: less sedation
Sprague-Dawley male rats; initial study, 30 mg/kg oral, 0.5 h post-dose
  time spent on the rotarod compared to saline control: showed a reduction in time spent on the rotarod
Sprague-Dawley male rats; initial study, 10, 100 or 300 mg/kg oral, 0.5 h and 1 h post-dose
  rotarod performance compared to saline control: did not exhibit impaired rotarod performance
Sprague-Dawley male rats; repeated study, 300 mg/kg oral, 0.5 h and 1 h post-dose
  time spent on rotarod compared to saline control: showed a reduction in time spent on rotarod
Sprague-Dawley male rats; repeated study, 10, 30 or 100 mg/kg oral, 0.5 h and 1 h post-dose
  rotarod performance compared to saline control: did not demonstrate impaired rotarod performance
[1]
  AUC: 210 ng·h/mL
  AUC(0-inf): 218 ng·h/mL
  MRT last: 47.7 min
  clearance: 77.9 ± 14.4 mL/min/kg
[1]; read-out: Cmax
  Cmax: 445 ± 83.6 ng/mL
[1]; read-out: T1/2(z)
  half-life: 62.2 ± 5.17 min
[1]; read-out: Vss
  Vd: 4.68 ± 0.938 L/kg
Male CD-1 mice; PO, 1/2 responding
  Loss Pinna, fold difference relative to parent compound: >>
  Muscle Rigidity, fold difference relative to parent compound: >100 fold
  Straub Tail, fold difference relative to parent compound: 100 fold
Male CD-1 mice; PO, 2/2 responding
  Loss Pinna, fold difference relative to parent compound: >>
  Muscle Rigidity, fold difference relative to parent compound: >30 fold
  Straub Tail, fold difference relative to parent compound: >100 fold
Male CD-1 mice; SC, 1/2 responding
  Loss Pinna, fold difference relative to parent compound: >30 fold
  Muscle Rigidity, fold difference relative to parent compound: 100 fold
  Straub Tail, fold difference relative to parent compound: 100 fold
Male CD-1 mice; SC, 2/2 responding
  Loss Pinna, fold difference relative to parent compound: 33 fold
  Muscle Rigidity, fold difference relative to parent compound: 100 fold
  Straub Tail, fold difference (reduction in CNS activity) relative to parent compound: 100 fold
Male CD-1 mice; male, CD-1, mouse, in vivo, oral
  decrease in CNS activity relative to parent opioid: 10-100 fold
Male CD-1 mice; oral doses up to 100 mg/kg
  mice showing the straub tail response: none
Male CD-1 mice; oral, 1 mg/kg
  Loss Pinna, number of animals responding (N=2): 0
  Muscle Rigidity, number of animals responding (N=2): 0
  Straub Tail Effect, number of animals responding (N=2): 0
Male CD-1 mice; oral, 3 mg/kg
  Loss Pinna, number of animals responding (N=2): 0
  Muscle Rigidity, number of animals responding (N=2): 0
  Straub Tail Effect, number of animals responding (N=2): 0
Male CD-1 mice; oral, 10 mg/kg
  Loss Pinna, number of animals responding (N=2): 0
  Muscle Rigidity, number of animals responding (N=2): 0
  Straub Tail Effect, number of animals responding (N=2): 0
Male CD-1 mice; oral, 30 mg/kg
  Loss Pinna, number of animals responding (N=2): 0
  Muscle Rigidity, number of animals responding (N=2): 0
  Straub Tail Effect, number of animals responding (N=2): 0
Male CD-1 mice; oral, 100 mg/kg
  Loss Pinna, number of animals responding (N=2): 0
  Muscle Rigidity, number of animals responding (N=2): 1
  Straub Tail Effect, number of animals responding (N=2): 0
Male CD-1 mice; oral, 300 mg/kg
  Loss Pinna, number of animals responding (N=2): 0
  Muscle Rigidity, number of animals responding (N=2): 1
  Straub Tail Effect, number of animals responding (N=2): 1
Male CD-1 mice; oral, highest dose tested
  lowest dose causing a detectable response in the straub test: 300 mg/kg
